Experimental findings from ChEMBL document CHEMBL4011590, “Structure-activity relationship studies on 3,5-dinitrophenyl tetrazoles as antitubercular agents” (Eur J Med Chem, 2017) are described below.

≈ marks a conversion by molar mass, not a printed value.

What all share (assay type): functional
In assay [1] the test system is Mycobacterium tuberculosis. The assay can be described thus: Antimycobacterial activity against Mycobacterium tuberculosis H37Rv CNCTC My 331/88 after 14 days by micromethod. As to conditions: H37Rv CNCTC My 331/88, 336 h.
In assay [2] the test system is Mycobacterium kansasii. The assay can be described thus: Antimycobacterial activity against Mycobacterium kansasii CNCTC My 235/80 after 21 days by micromethod. To be noted: CNCTC My 235/80, 504 h.
Assay [3] relates to Mycobacterium kansasii. The assay can be described thus: Antimycobacterial activity against Mycobacterium kansasii CNCTC My 235/80 after 7 days by micromethod. To be noted: CNCTC My 235/80, 168 h.
For assay [4], the system named is Mycobacterium avium. The assay can be described thus: Antimycobacterial activity against Mycobacterium avium CNCTC My 330/80 after 21 days by micromethod. As to conditions: CNCTC My 330/80, 504 h.
Assay [5] relates to Mycobacterium kansasii. Put plainly: Antimycobacterial activity against Mycobacterium kansasii isolate 6509/96 after 21 days by micromethod. As to conditions: isolate 6509/96, 504 h.
For assay [6], the system named is Mycobacterium kansasii. The assay can be described thus: Antimycobacterial activity against Mycobacterium kansasii isolate 6509/96 after 7 days by micromethod. To be noted: isolate 6509/96, 168 h.
The subject of assay [7] is Mycobacterium tuberculosis. The assay can be described thus: Antimycobacterial activity against Mycobacterium tuberculosis H37Rv CNCTC My 331/88 after 21 days by micromethod. To be noted: H37Rv CNCTC My 331/88, 504 h.
Assay [8] deals with Mycobacterium avium. The assay can be described thus: Antimycobacterial activity against Mycobacterium avium CNCTC My 330/80 after 14 days by micromethod. As to conditions: CNCTC My 330/80, 336 h.
For assay [9], the system named is Mycobacterium kansasii. Put plainly: Antimycobacterial activity against Mycobacterium kansasii CNCTC My 235/80 after 14 days by micromethod. As to conditions: CNCTC My 235/80, 336 h.
Assay [10] concerns Mycobacterium kansasii. The assay can be described thus: Antimycobacterial activity against Mycobacterium kansasii isolate 6509/96 after 14 days by micromethod. As to conditions: isolate 6509/96, 336 h.

Take `COc1ccccc1-n1nnnc1SCn1nnc(-c2cc([N+](=O)[O-])cc([N+](=O)[O-])c2)n1`: the MIC99 (commonly an inhibitory concentration at the 99% level, which refers to growth in some studies and to a panel of isolates in others) in [1] was found to be 0.25 µM (≈ 0.114 µg/mL); with Mycobacterium kansasii [2], 32 µM (≈ 14.6 µg/mL); against Mycobacterium kansasii [3], 32 µM (≈ 14.6 µg/mL); against Mycobacterium avium [4] it was 32 µM (≈ 14.6 µg/mL); in the assay on Mycobacterium kansasii [5], 32 µM (≈ 14.6 µg/mL); with Mycobacterium kansasii [6] it was 32 µM (≈ 14.6 µg/mL). In addition, the MIC99 amounted to 0.25 µM (≈ 0.114 µg/mL) in [7], 32 µM (≈ 14.6 µg/mL) in the assay on Mycobacterium avium [8], 32 µM (≈ 14.6 µg/mL) in the assay on Mycobacterium kansasii [9] and 32 µM (≈ 14.6 µg/mL) in the assay on Mycobacterium kansasii [10].
Regarding `COc1ccccc1-n1nnnc1Sc1cc([N+](=O)[O-])cc([N+](=O)[O-])c1`, the MIC99 in assay [1] is 4 µM (≈ 1.5 µg/mL); in the assay on Mycobacterium kansasii [2], 62.5 µM (≈ 23.4 µg/mL); against Mycobacterium kansasii [3], 16 µM (≈ 5.99 µg/mL); in the assay on Mycobacterium avium [4] it was 32 µM (≈ 12 µg/mL); with Mycobacterium kansasii [5] it was 32 µM (≈ 12 µg/mL); in the assay with Mycobacterium kansasii [6] it was 8 µM (≈ 2.99 µg/mL). For the same molecule, the MIC99 in assay [7] was 8 µM (≈ 2.99 µg/mL); against Mycobacterium avium [8], 16 µM (≈ 5.99 µg/mL); against Mycobacterium kansasii [9], 32 µM (≈ 12 µg/mL); against Mycobacterium kansasii [10] it was 32 µM (≈ 12 µg/mL).
In the case of `O=[N+]([O-])c1cc(-c2nnn(Cc3cc(F)cc(F)c3)n2)cc([N+](=O)[O-])c1`, the MIC99 in [1] worked out at 0.25 µM (≈ 0.0906 µg/mL); in the assay on Mycobacterium kansasii [2] it was 4 µM (≈ 1.45 µg/mL); in the assay with Mycobacterium kansasii [3], 1 µM (≈ 0.362 µg/mL); in the assay with Mycobacterium avium [4], 16 µM (≈ 5.8 µg/mL); against Mycobacterium kansasii [5] it was 4 µM (≈ 1.45 µg/mL); with Mycobacterium kansasii [6], 1 µM (≈ 0.362 µg/mL). Moreover, the MIC99 in assay [7] worked out at 5 µM (≈ 1.81 µg/mL); with Mycobacterium avium [8] it was 8 µM (≈ 2.9 µg/mL); in the assay with Mycobacterium kansasii [9], 2 µM (≈ 0.725 µg/mL); against Mycobacterium kansasii [10], 2 µM (≈ 0.725 µg/mL).
On to `COc1ccc(-n2nnnc2SCn2nnc(-c3cc([N+](=O)[O-])cc([N+](=O)[O-])c3)n2)cc1`, for which the MIC99 is 0.25 µM (≈ 0.114 µg/mL) in [1]; 2 µM (≈ 0.913 µg/mL) in the assay on Mycobacterium kansasii [2]; 0.5 µM (≈ 0.228 µg/mL) in the assay on Mycobacterium kansasii [3]; 1 µM (≈ 0.456 µg/mL) against Mycobacterium avium [4]; 1 µM (≈ 0.456 µg/mL) against Mycobacterium kansasii [5]; 0.25 µM (≈ 0.114 µg/mL) in the assay with Mycobacterium kansasii [6]. Besides, the MIC99 in assay [7] stood at 0.5 µM (≈ 0.228 µg/mL); in the assay with Mycobacterium avium [8] it was 1 µM (≈ 0.456 µg/mL); against Mycobacterium kansasii [9], 1 µM (≈ 0.456 µg/mL); against Mycobacterium kansasii [10], 0.5 µM (≈ 0.228 µg/mL).
On to `NNC(=O)c1ccncc1` [ISONIAZID], for which the MIC99 in the assay with Mycobacterium kansasii [5] is 4 µM (≈ 0.549 µg/mL); in the assay on Mycobacterium kansasii [6] it was 4 µM (≈ 0.549 µg/mL); against Mycobacterium avium [8], over 250 µM; against Mycobacterium kansasii [9], over 250 µM; with Mycobacterium kansasii [10], 4 µM (≈ 0.549 µg/mL).
`O=[N+]([O-])c1cc(-c2nnn(CCCCSc3nnnn3-c3ccc(Cl)c(Cl)c3)n2)cc([N+](=O)[O-])c1`: the MIC99 in assay [1] worked out at 0.25 µM (≈ 0.134 µg/mL); in the assay on Mycobacterium kansasii [2], 1 µM (≈ 0.537 µg/mL); in the assay on Mycobacterium kansasii [3], 0.5 µM (≈ 0.269 µg/mL); against Mycobacterium avium [4], 4 µM (≈ 2.15 µg/mL); in the assay with Mycobacterium kansasii [5] it was 1 µM (≈ 0.537 µg/mL); against Mycobacterium kansasii [6], 0.5 µM (≈ 0.269 µg/mL). For the same molecule, the MIC99 amounted to 0.25 µM (≈ 0.134 µg/mL) in assay [7], 2 µM (≈ 1.07 µg/mL) in the assay on Mycobacterium avium [8], 1 µM (≈ 0.537 µg/mL) in the assay on Mycobacterium kansasii [9] and 1 µM (≈ 0.537 µg/mL) against Mycobacterium kansasii [10].
For the molecule `CCCCCCCCCCCCCCCCn1nnnc1SCn1nnc(-c2cc([N+](=O)[O-])cc([N+](=O)[O-])c2)n1`, the MIC99 worked out at 4 µM (≈ 2.3 µg/mL) in [1]; 32 µM (≈ 18.4 µg/mL) with Mycobacterium kansasii [2]; 16 µM (≈ 9.2 µg/mL) in the assay with Mycobacterium kansasii [3]; 250 µM (≈ 144 µg/mL) in the assay on Mycobacterium avium [4]; 32 µM (≈ 18.4 µg/mL) against Mycobacterium kansasii [5]; 8 µM (≈ 4.6 µg/mL) against Mycobacterium kansasii [6]. In addition, the MIC99 worked out at 8 µM (≈ 4.6 µg/mL) in assay [7], 125 µM (≈ 71.8 µg/mL) against Mycobacterium avium [8], 32 µM (≈ 18.4 µg/mL) against Mycobacterium kansasii [9] and 16 µM (≈ 9.2 µg/mL) in the assay with Mycobacterium kansasii [10].
On to `O=[N+]([O-])c1cc(-c2nnn(CCSc3nnnn3-c3ccc(Br)cc3)n2)cc([N+](=O)[O-])c1`, for which the MIC99 is 0.5 µM (≈ 0.26 µg/mL) in [1]; 1 µM (≈ 0.519 µg/mL) against Mycobacterium kansasii [2]; 0.5 µM (≈ 0.26 µg/mL) with Mycobacterium kansasii [3]; 2 µM (≈ 1.04 µg/mL) against Mycobacterium avium [4]; 1 µM (≈ 0.519 µg/mL) in the assay with Mycobacterium kansasii [5]; 1 µM (≈ 0.519 µg/mL) against Mycobacterium kansasii [6]. The MIC99 was found to be 0.5 µM (≈ 0.26 µg/mL) in [7], 2 µM (≈ 1.04 µg/mL) against Mycobacterium avium [8], 1 µM (≈ 0.519 µg/mL) against Mycobacterium kansasii [9] and 1 µM (≈ 0.519 µg/mL) against Mycobacterium kansasii [10].
For the molecule `O=[N+]([O-])c1cc(-c2nnn(CCSc3nnnn3-c3ccc(Cl)c(Cl)c3)n2)cc([N+](=O)[O-])c1`, the MIC99 was 0.25 µM (≈ 0.127 µg/mL) in [1]; 1 µM (≈ 0.509 µg/mL) in the assay with Mycobacterium kansasii [2]; 0.25 µM (≈ 0.127 µg/mL) in the assay with Mycobacterium kansasii [3]; 4 µM (≈ 2.04 µg/mL) against Mycobacterium avium [4]; 1 µM (≈ 0.509 µg/mL) in the assay with Mycobacterium kansasii [5]; 0.5 µM (≈ 0.255 µg/mL) against Mycobacterium kansasii [6]. In addition, the MIC99 in assay [7] came out at 0.25 µM (≈ 0.127 µg/mL); against Mycobacterium avium [8], 2 µM (≈ 1.02 µg/mL); against Mycobacterium kansasii [9], 0.5 µM (≈ 0.255 µg/mL); in the assay with Mycobacterium kansasii [10], 1 µM (≈ 0.509 µg/mL).
For the molecule `O=[N+]([O-])c1cc(-c2nnn(Cc3ccc(F)c(F)c3)n2)cc([N+](=O)[O-])c1`, the MIC99 was 0.25 µM (≈ 0.0906 µg/mL) in assay [1]; 4 µM (≈ 1.45 µg/mL) against Mycobacterium kansasii [2]; 1 µM (≈ 0.362 µg/mL) in the assay with Mycobacterium kansasii [3]; 8 µM (≈ 2.9 µg/mL) against Mycobacterium avium [4]; 2 µM (≈ 0.725 µg/mL) in the assay on Mycobacterium kansasii [5]; 1 µM (≈ 0.362 µg/mL) against Mycobacterium kansasii [6]. In addition, the MIC99 in assay [7] came out at 0.5 µM (≈ 0.181 µg/mL); against Mycobacterium avium [8] it was 4 µM (≈ 1.45 µg/mL); in the assay with Mycobacterium kansasii [9], 2 µM (≈ 0.725 µg/mL); in the assay with Mycobacterium kansasii [10], 2 µM (≈ 0.725 µg/mL).
